Test results reported in patent US20210267996A1, “Compounds for inhibition of inflammation” (Children`s Medical Center Corporation, priority 2018, published 2021).
“Also recorded” adds a separate entry of the source.

Experiments:
caspase-1 = assay: Caspase-1 activity assay in cells (FAM-YVAD-FMK); assay type: cell-based, human; conditions: 30 μM, 30 min after nigericin
Experimental: Caspase-1 activity assay in cells: to measure caspase-1 activation, THP-1 cells were seeded into 96-well plates and differentiated with PMA. After the indicated treatments, cells were incubated with a fluorescent active caspase-1 substrate FAM-YVAD-FMK (Immunochemistry Technologies). Samples were read on a BioTek Synergy 2 plate reader.
(§1) Cell death was determined by CytoTox96 assay. […] Cell death was determined by CytoTox96 assay. […] Shown are immunoblots of whole cell lysates harvested 0.5 hr later. […] Representative images of ASC specks (arrowheads) and mean±s.d. percent of cells with ASC specks analyzed 20 min later (FIG. 47). Whole cell lysates (WCL) and culture supernatants (Sup) were harvested 30 min after adding nigericin and immunoblotted with the indicated antibodies (FIG. 50). Caspase-1 activity was assayed 30 min after adding nigericin using a cell-permeable fluorescence dye FAM-YVAD-FMK (FIG. 52). […] Representative images of ASC specks (arrowheads) and mean±s.d. percent of cells with ASC specks analyzed 20 min later (FIGS. 48 and 49). Whole cell lysates (WCL) and culture supernatants (Sup), harvested 30 min after adding nigericin, were analyzed by immunoblot (FIG. 51). […] The Figures show representative confocal microscopy images and quantification of proportion of cells with GSDMD membrane staining and pyroptotic bubbles. Arrows indicate GSDMD staining of pyroptotic bubbles. […] FIGS. 57 and 58, dose response curve of the effect of Bay 11-7082 on caspase-1 (FIG. 57) and caspase-11 (FIG. 58) activity against a fluorescent peptide substrate. […] (FIG. 60). FIGS. 61 and 62 show dose response curve of the effect of Bay 11-7082 on liposome leakage induced by 0.3 μM human GSDMD-3C (FIG. 61) or mouse GSDMA3-3C (FIG. 62) plus 0.15 μM 3C protease. […] 2-fold dilutions of Bay 11-7082 from 5-40 μM were used. Graphs show the mean±s.d; data are representative of three independent experiments. *P<0.05, **P<0.01.

GSDMD pore formation = assay: GSDMD membrane staining and pyroptotic bubbles, immunofluorescence; assay type: cell-based, human; conditions: 30 μM, 30 min after nigericin
Experimental: (§2) Immunostaining and confocal microscopy: cells grown on coverslips were fixed for 15 min with 4% paraformaldehyde in PBS, permeabilized for 5 min in 0.1% Triton X-100 in PBS and blocked using 5% BSA for 1 hr. Then, cells were stained with the indicated primary antibodies followed by incubation with fluorescent-conjugated secondary antibodies (Jackson ImmunoResearch). Nuclei were counterstained with DAPI (4,6-diamidino-2-phenylindole) (Sigma-Aldrich). Slides were mounted using Aqua-Poly/Mount (Dako). Images were captured using a laser scanning confocal microscope (Olympus Fluoview FV1000 Confocal System) with a 63× water immersion objective and Olympus Fluoview software (Olympus). All confocal images are representative of three independent experiments.
To assess which steps in NLRP3-mediated inflammation were inhibited post ASC speck formation, LPS-primed THP-1 cells were treated with vehicle or 30 μM z-VAD-fmk, disulfiram or Bay 11-7082 1 hr before adding nigericin, and cleavage and activation of caspase-1, GSDMD, and pro-IL-1β were analysed by immunoblot of whole cell lysates 30 min later (FIG. 50). Secretion of processed IL-1β was also assessed by immunoblot of culture supernatants. […] Because immunoblots are not quantitative, caspase-1 activity 30 min after adding nigericin was also assessed using a fluorescent substrate in intact cells. […] Next, the effect of z-VAD-fmk, disulfiram and Bay 11-7082 on LPS+nigericin-induced GSDMD pore formation was assessed by immunofluorescence microscopy using a monoclonal antibody that was generated that recognizes both uncleaved GSDMD and its pore form (FIGS. 53, 54, and 64-66). […]
Cell death was determined by CytoTox96 assay. […] Cell death was determined by CytoTox96 assay. […] Representative images of ASC specks (arrowheads) and mean±s.d. percent of cells with ASC specks analyzed 20 min later (FIG. 47). […] Caspase-1 activity was assayed 30 min after adding nigericin using a cell-permeable fluorescence dye FAM-YVAD-FMK (FIG. 52). […]

mouse iBMDMs = assay: Processing of caspase-1, GSDMD and IL-1β in iBMDMs (immunoblot); assay type: cell-based; conditions: 1 hr time point
Experimental: (§3) FIG. 97 contains a bar graph showing results of an experiment where LPS-primed THP-1 cells, after medium removal, were incubated with probe FAM-YVAD-FMK in FLICA assay buffer for another 0.5 hr before fluorescence reading. iBMDMs were pretreated with disulfiram, Bay 11-7082, necrosulfonamide (NSA) or z-VAD-fmk for 1 hr before treated or not with Nigericin for 0.5 hr. Whole cell lysates and culture supernatants were immunoblotted with the indicated antibodies.
as §3, with “FIG. 98” for “FIG. 97”, “for 1” for “for 0.5”
Canonical inflammasome assembly activates caspase-1, which cleaves pro-IL-1β and GSDMD, and the latter is needed to release processed IL-1β and to induce pyroptosis. To assess which steps in NLRP3-mediated inflammation were inhibited post ASC speck formation, LPS-primed THP-1 cells were treated with vehicle, 30 μM z-VAD-fmk or disulfiram 1 hour before adding nigericin, and cleavage and activation of caspase-1, GSDMD, and pro-IL-1β were analysed by immunoblot of whole cell lysates 30 min later and 1 hr later. Secretion of processed IL-1β was also assessed by immunoblot of culture supernatants. […] The 1 hr time point is relevant as the cell death and IL-1β release measurements used cells stimulated with nigericin for 1 and 2 hrs, respectively.

[1] = test system: caspase-1, GSDMD, and pro-IL-1β; assay: Caspase-1, GSDMD, pro-IL-1β cleavage and IL-1β secretion by immunoblot, THP-1; assay type: cell-based, human; conditions: 30 μM
Experimental: Immunoblot analysis: cell extracts were prepared using RIPA buffer (50 mM Tris-HCl pH 7.4, 150 mM NaCl, 1 mM EDTA, 1% Triton X-100, 0.1% SDS, 0.5% deoxycholate) supplemented with a complete protease inhibitor cocktail (Roche) and a PhosSTOP phosphatase inhibitor cocktail (Roche). Samples were subjected to SDS-PAGE and the resolved proteins were then transferred to a PVDF membrane (Millipore). Immunoblots were probed with indicated antibodies and visualized using a SuperSignal West Pico chemiluminescence ECL kit (Pierce).
To assess which steps in NLRP3-mediated inflammation were inhibited post ASC speck formation, LPS-primed THP-1 cells were treated with vehicle or 30 μM z-VAD-fmk, disulfiram or Bay 11-7082 1 hr before adding nigericin, and cleavage and activation of caspase-1, GSDMD, and pro-IL-1β were analysed by immunoblot of whole cell lysates 30 min later (FIG. 50). Secretion of processed IL-1β was also assessed by immunoblot of culture supernatants. […] Because immunoblots are not quantitative, caspase-1 activity 30 min after adding nigericin was also assessed using a fluorescent substrate in intact cells. […] Next, the effect of z-VAD-fmk, disulfiram and Bay 11-7082 on LPS+nigericin-induced GSDMD pore formation was assessed by immunofluorescence microscopy using a monoclonal antibody that was generated that recognizes both uncleaved GSDMD and its pore form (FIGS. 53, 54, and 64-66). In the absence of any inhibitor, the GSDMD antibody stained both the cytosol and the plasma membrane of LPS plus nigericin treated cells, which formed characteristic pyroptotic bubbles (See Reference 10). […] Thus, disulfiram and Bay 11-7082 inhibit multiple steps leading to canonical inflammasome-induced pyroptosis and inflammatory cytokine release, including priming, inflammasome assembly, inflammatory caspase activation, pro-inflammatory cytokine processing and GSDMD pore formation.
as §1
Canonical inflammasome assembly activates caspase-1, which cleaves pro-IL-1β and GSDMD, and the latter is needed to release processed IL-1β and to induce pyroptosis. […]

THP-1 cells = assay: Canonical inflammasome pyroptosis, LPS-primed THP-1 cells plus nigericin; assay type: cell-based, human; conditions: THP-1, nigericin
Experimental: Cell viability assay. […] Primed THP-1 cells were pretreated with each test compound for 1 hr before addition of 20 μM nigericin or medium as control. The number of surviving cells was determined by CellTiter-Glo assay 1.5 hrs later. The final percent cell viability was calculated using the formula [(luminescencetest compound−luminescencencenegative control)/(luminescencencepositive control−luminescencenegative control)]×100, where wells with only LPS were used as positive controls and wells treated with LPS and nigericin were used as negative controls.
Cells were verified to be free of mycoplasma contamination.
Cytotoxicity and cell viability assays: cell death and cell viability were determined by the lactate dehydrogenase release assay using the CytoTox 96 Non-Radioactive Cytotoxicity Assay kit (Promega) and by measuring ATP levels using the CellTiter-Glo Luminescent Cell Viability Assay (Promega), respectively, according to the manufacturer's instructions. Luminescence and absorbance were measured on a BioTek Synergy 2 plate reader.
In FIGS. 4, 6, and 8, PMA-differentiated LPS-primed human THP-1 were pre-treated with indicated concentrations of each compound for 1 h before adding nigericin or medium. The number of surviving cells was determined by CellTiter-Glo assay (FIGS. 4 and 6) and IL-1β in culture supernatants was assessed by ELISA (FIG. 8) 2 hrs later. […] In FIGS. 8 and 9, 40 μM concentration of test compounds were added. […] Graphs show the mean±s.d. and data shown are representative of three independent experiments. **P<0.01.

ASC specks = assay: ASC speck formation in LPS-primed THP-1 cells plus nigericin; assay type: cell-based, human; conditions: 30 μM, 1 hr before nigericin
Experimental: as §2
Nigericin activates the assembly of the NLRP3 canonical inflammasome using an adaptor called apoptosis-associated speck-like protein containing a caspase recruitment domain (ASC), which can be visualized in immunofluorescent microscopy as specks. When LPS-primed THP-1 cells were treated with nigericin in the absence of inhibitors, ASC specks were detected in 30% of cells (FIG. 36). As expected, speck formation was not inhibited by z-VAD-fmk, since caspase activation occurs downstream of inflammasome assembly.
as §1

COC(=O)C[C@@H](C(=O)CF)N(C(=O)[C@@H](NC(=O)OCc1ccccc1)C(C)C)[C@@H](C)C(N)=O [z-VAD-fmk]
caspase-1 activity in intact cells (caspase-1): completely inhibited | GSDMD membrane staining and pyroptotic bubbles (GSDMD pore formation): completely blocked | processing of caspase-1, GSDMD and IL-1β (mouse iBMDMs): still inhibited processing | processed IL-1β in culture supernatants [1]: only detected in the culture supernatants in the absence of any inhibitor; also recorded: only detected in culture supernatants in the absence of either inhibitor | caspase-1, GSDMD and pro-IL-1β cleavage ([1]; 30 min after nigericin): dramatically reduced; also recorded: processing was reduced | processing of caspase-1, GSDMD and pro-IL-1β ([1]; 60 min after nigericin): still showed little cleavage | inhibition of canonical inflammasome pyroptosis (THP-1 cells): inhibits the canonical inflammasome pathway | ASC speck formation (ASC specks): not inhibited
